Reference: ChEMBL document CHEMBL1201862, “PubChem BioAssay data set” (2004)
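Where inhibition never reached the appropriate level, the endpoint shown equals the highest concentration tested. Otherwise, values were interpolated linearly from a five-concentration, 48-hour dose response in 96-well plates. Here, GI50 denotes the concentration required for 50% inhibition of growth.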 Calls of active or inactive are those of the source. Cut-off read from the data, not from the text of the source: active = GI50 up to about 1.1 µM and inactive = higher.

Experiments:
Test in all cases: NCI anticancer screen, dose series, 48 h
[1] = tested on: 786-0
[2] = tested on: A549
[3] = tested on: DMS-114
[4] = tested on: UACC-257
[5] = tested on: M14
[6] = tested on: SNB-19
[7] = tested on: A498
[8] = tested on: HL-60
[9] = tested on: NCI-H226
[10] = tested on: RXF 393
[11] = tested on: NCI-H460
[12] = tested on: UACC-62
[13] = tested on: HOP-62
[14] = tested on: SF-295
[15] = tested on: SK-MEL-28
[16] = tested on: CAKI-1
[17] = tested on: CCRF-CEM
[18] = tested on: OVCAR-4
[19] = tested on: UO-31
[20] = tested on: KM12
[21] = tested on: IGROV-1
[22] = tested on: HOP-92
[23] = tested on: LXFL 529
[24] = tested on: HCT-15
[25] = tested on: DMS-273
[26] = tested on: LOX IMVI
[27] = tested on: KM-20L2
[28] = tested on: SNB-75
[29] = tested on: SW-620
[30] = tested on: TK-10
[31] = tested on: HT-29
[32] = tested on: COLO 205
[33] = tested on: EKVX
[34] = tested on: K562
[35] = tested on: SF-539
[36] = tested on: MOLT-4
[37] = tested on: SF-268
[38] = tested on: NCI-H522
[39] = tested on: RPMI-8226
[40] = tested on: M19-MEL
[41] = tested on: U-251
[42] = tested on: SN12C
[43] = tested on: HCC 2998
[44] = tested on: SK-MEL-5
[45] = tested on: SK-OV-3
[46] = tested on: HCT-116
[47] = tested on: XF498
[48] = tested on: NCI-H23
[49] = tested on: DLD-1
[50] = tested on: OVCAR-5
[51] = tested on: ACHN
[52] = tested on: OVCAR-8
[53] = tested on: SR
[54] = tested on: SNB-78
[55] = tested on: SK-MEL-2
[56] = tested on: Malme-3M
[57] = tested on: OVCAR-3
[58] = tested on: HOP-18
[59] = tested on: MCF7

Which GI50 [1] does the source give for Cn1c(=O)n(C2(C)CSC2)c2ccccc21 here?
Its GI50 is > 100 µM (inactive).

And the GI50 [2]?
The GI50 was > 100 µM (inactive).

And the GI50 [3]?
Its GI50 is > 100 µM (inactive).

And the GI50 [4]?
The GI50 was > 100 µM (inactive).

What about the GI50 [5] of the same compound?
Its GI50 is > 100 µM (inactive).

And the GI50 [6]?
Its GI50 is > 100 µM (inactive).

What about the GI50 [7] of the same compound?
The GI50 was > 100 µM (inactive).

And the GI50 [8]?
The GI50 was > 100 µM (inactive).

And the GI50 [9]?
The GI50 was > 100 µM (inactive).

What about the GI50 [10] of the same compound?
Its GI50 is > 100 µM (inactive).

What about the GI50 [11] of the same compound?
The GI50 was > 100 µM (inactive).

And the GI50 [12]?
The GI50 was > 100 µM (inactive).

What about the GI50 [13] of the same compound?
The GI50 was > 100 µM (inactive).

What about the GI50 [14] of the same compound?
The GI50 was > 100 µM (inactive).

What about the GI50 [15] of the same compound?
The GI50 was > 100 µM (inactive).

And the GI50 [16]?
Its GI50 is > 100 µM (inactive).

What about the GI50 [17] of the same compound?
The GI50 was > 100 µM (inactive).

And the GI50 [18]?
The GI50 was > 100 µM (inactive).

And the GI50 [19]?
Its GI50 is > 100 µM (inactive).

What about the GI50 [20] of the same compound?
The GI50 was > 100 µM (inactive).

What about the GI50 [21] of the same compound?
Its GI50 is > 100 µM (inactive).

And the GI50 [22]?
Its GI50 is > 100 µM (inactive).

What about the GI50 [23] of the same compound?
Its GI50 is > 100 µM (inactive).

And the GI50 [24]?
Its GI50 is > 100 µM.

And the GI50 [25]?
Its GI50 is > 100 µM (inactive).

What about the GI50 [26] of the same compound?
Its GI50 is > 100 µM (inactive).

What about the GI50 [27] of the same compound?
The GI50 was > 100 µM (inactive).

And the GI50 [28]?
Its GI50 is > 100 µM (inactive).

What about the GI50 [29] of the same compound?
The GI50 was > 100 µM (inactive).

And the GI50 [30]?
The GI50 was > 100 µM (inactive).

And the GI50 [31]?
Its GI50 is > 100 µM (inactive).

What about the GI50 [32] of the same compound?
Its GI50 is > 100 µM (inactive).

What about the GI50 [33] of the same compound?
Its GI50 is > 100 µM (inactive).

What about the GI50 [34] of the same compound?
Its GI50 is > 100 µM (inactive).

And the GI50 [35]?
Its GI50 is > 100 µM (inactive).

And the GI50 [36]?
The GI50 was > 100 µM (inactive).

What about the GI50 [37] of the same compound?
The GI50 was > 100 µM (inactive).

What about the GI50 [38] of the same compound?
The GI50 was > 100 µM (inactive).

And the GI50 [39]?
Its GI50 is > 100 µM (inactive).

What about the GI50 [40] of the same compound?
Its GI50 is > 100 µM (inactive).

And the GI50 [41]?
The GI50 was > 100 µM (inactive).

And the GI50 [42]?
The GI50 was > 100 µM (inactive).

What about the GI50 [43] of the same compound?
The GI50 was > 100 µM (inactive).

And the GI50 [44]?
The GI50 was > 100 µM (inactive).

What about the GI50 [45] of the same compound?
The GI50 was > 100 µM (inactive).

And the GI50 [46]?
The GI50 was > 100 µM (inactive).

And the GI50 [47]?
Its GI50 is > 100 µM (inactive).

And the GI50 [48]?
The GI50 was > 100 µM (inactive).

What about the GI50 [49] of the same compound?
Its GI50 is > 100 µM (inactive).

What about the GI50 [50] of the same compound?
The GI50 was > 100 µM (inactive).

What about the GI50 [51] of the same compound?
The GI50 was > 100 µM (inactive).

And the GI50 [52]?
Its GI50 is > 100 µM (inactive).

What about the GI50 [53] of the same compound?
The GI50 was > 100 µM (inactive).

How did the GI50 [1] turn out when Cc1ccc(/N=N/C2S/C(=C(\C#N)c3nc4ccccc4[nH]3)N(c3ccccc3)C2=O)cc1 (stereo not given) was run?
Its GI50 is 27.3 µM (inactive).

What about the GI50 [2] of the same compound?
The GI50 was 88.1 µM (inactive).

And the GI50 [3]?
Its GI50 is 65.5 µM (inactive).

What about the GI50 [4] of the same compound?
The GI50 was 55 µM (inactive).

What about the GI50 [5] of the same compound?
Its GI50 is 89.1 µM (inactive).

What about the GI50 [6] of the same compound?
The GI50 was 99.1 µM (inactive).

What about the GI50 [7] of the same compound?
The GI50 was > 100 µM (inactive).

What about the GI50 [8] of the same compound?
Its GI50 is > 100 µM (inactive).

What about the GI50 [9] of the same compound?
Its GI50 is > 100 µM (inactive).

What about the GI50 [10] of the same compound?
Its GI50 is 28.8 µM (inactive).

And the GI50 [11]?
Its GI50 is > 100 µM (inactive).

And the GI50 [12]?
Its GI50 is > 100 µM (inactive).

What about the GI50 [54] of the same compound?
The GI50 was > 100 µM (inactive).

And the GI50 [55]?
The GI50 was > 100 µM (inactive).

What about the GI50 [13] of the same compound?
The GI50 was 30.1 µM (inactive).

And the GI50 [14]?
Its GI50 is 42.6 µM (inactive).

What about the GI50 [15] of the same compound?
The GI50 was > 100 µM (inactive).

What about the GI50 [16] of the same compound?
Its GI50 is 67.1 µM (inactive).

What about the GI50 [17] of the same compound?
The GI50 was > 100 µM (inactive).

What about the GI50 [18] of the same compound?
Its GI50 is 42.8 µM (inactive).

What about the GI50 [19] of the same compound?
The GI50 was 39 µM (inactive).

What about the GI50 [21] of the same compound?
The GI50 was 29.6 µM (inactive).

And the GI50 [22]?
Its GI50 is 37.3 µM (inactive).

What about the GI50 [56] of the same compound?
The GI50 was > 100 µM (inactive).

And the GI50 [23]?
Its GI50 is > 100 µM (inactive).

And the GI50 [24]?
The GI50 was > 100 µM.

And the GI50 [25]?
Its GI50 is > 100 µM (inactive).

What about the GI50 [26] of the same compound?
The GI50 was 19.9 µM (inactive).

What about the GI50 [27] of the same compound?
The GI50 was > 100 µM (inactive).

And the GI50 [28]?
Its GI50 is 29.2 µM (inactive).

And the GI50 [29]?
Its GI50 is > 100 µM (inactive).

And the GI50 [30]?
The GI50 was 36.9 µM (inactive).

And the GI50 [31]?
The GI50 was > 100 µM (inactive).

And the GI50 [32]?
The GI50 was > 100 µM (inactive).

And the GI50 [33]?
Its GI50 is > 100 µM (inactive).

And the GI50 [34]?
The GI50 was 20.4 µM (inactive).

And the GI50 [35]?
Its GI50 is 43.6 µM (inactive).

What about the GI50 [37] of the same compound?
The GI50 was > 100 µM (inactive).

And the GI50 [38]?
The GI50 was > 100 µM (inactive).

And the GI50 [40]?
The GI50 was > 100 µM (inactive).

What about the GI50 [41] of the same compound?
The GI50 was 57.9 µM (inactive).

And the GI50 [42]?
The GI50 was > 100 µM (inactive).

What about the GI50 [44] of the same compound?
The GI50 was > 100 µM (inactive).

And the GI50 [45]?
Its GI50 is > 100 µM (inactive).

And the GI50 [46]?
Its GI50 is 90.2 µM (inactive).

And the GI50 [47]?
Its GI50 is 30 µM (inactive).

And the GI50 [48]?
The GI50 was 86.7 µM (inactive).

And the GI50 [49]?
The GI50 was > 100 µM (inactive).

What about the GI50 [50] of the same compound?
Its GI50 is 85.1 µM (inactive).

And the GI50 [51]?
The GI50 was 34.1 µM (inactive).

And the GI50 [52]?
The GI50 was 56.1 µM (inactive).

And the GI50 [57]?
The GI50 was > 100 µM (inactive).

What does the source list for CC1=C(C)C(=O)O[C@@H]([C@](C)(O)[C@]2(O)CC[C@@]3(O)[C@@H]4C[C@H]5O[C@]56[C@@H](O)C=CC(=O)[C@]6(C)[C@H]4CC[C@]23C)C1?
GI50 [2]: 4.01 µM (inactive); GI50 [4]: 0.308 µM (active); GI50 [6]: 2.17 µM (inactive); GI50 [9]: 11 µM (inactive); GI50 [11]: 1.6 µM (inactive); GI50 [54]: 0.499 µM (active); GI50 [55]: 0.451 µM (active); GI50 [13]: 1.11 µM (active); GI50 [14]: 2.99 µM (inactive); GI50 [16]: 0.025 µM (active); GI50 [58]: 0.0454 µM (active); GI50 [17]: 0.0851 µM (active); GI50 [19]: 0.587 µM (active); GI50 [21]: 1.01 µM (active); GI50 [22]: 0.0373 µM (active); GI50 [56]: 0.33 µM (active); GI50 [24]: 0.137 µM; GI50 [26]: 0.133 µM (active); GI50 [28]: 0.0468 µM (active); GI50 [31]: 0.174 µM (active); GI50 [35]: 0.774 µM (active); GI50 [59]: 0.186 µM (active); GI50 [39]: 0.0959 µM (active); GI50 [41]: 1.88 µM (inactive); GI50 [42]: 1.04 µM (active); GI50 [43]: 1.71 µM (inactive); GI50 [44]: 0.414 µM (active); GI50 [45]: 6.4 µM (inactive); GI50 [46]: 0.182 µM (active); GI50 [47]: 0.0912 µM (active)
